PubChem BioAssay (NCI)
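Grown in 96-well plates, cells were treated for 48 hours with each compound at five concentrations. Insufficient inhibition: endpoint recorded as highest concentration tested. Definition used: TGI = concentration required for complete inhibition of growth.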 Where a SMILES comes first, the peptide text is derived from it.

What was measured:
Test in all cases: NCI tumour cell line growth inhibition, 48 h
[1] = test system: MDA-MB-435
[2] = test system: COLO 205 colon
[3] = test system: TK-10 renal
[4] = test system: NCI-H226 lung
[5] = test system: HCC-2998 colon
[6] = test system: SK-MEL-28 melanoma
[7] = test system: ACHN renal
[8] = test system: A549 NSCLC
[9] = test system: SF-268 CNS
[10] = test system: PC-3 prostate
[11] = test system: NCI-H23 lung
[12] = test system: MALME-3M melanoma
[13] = test system: MCF7 breast
[14] = test system: SF-295 CNS
[15] = test system: OVCAR-8 ovarian
[16] = test system: KM12 colon
[17] = test system: K-562 leukemia
[18] = test system: SW-620 colon
[19] = test system: UO-31 renal
[20] = test system: SR leukemia
[21] = test system: HOP-62 NSCLC
[22] = test system: U251 CNS
[23] = test system: IGROV1 ovarian
[24] = test system: A498 renal
[25] = test system: SK-MEL-5 melanoma
[26] = test system: MDA-N
[27] = test system: EKVX NSCLC
[28] = test system: SF-539 CNS
[29] = test system: LOX IMVI melanoma
[30] = test system: 786-0 renal
[31] = test system: UACC-257 melanoma
[32] = test system: T-47D breast
[33] = test system: RPMI-8226 leukemia
[34] = test system: NCI/ADR-RES ovarian
[35] = test system: SK-OV-3 ovarian
[36] = test system: HT29 colon
[37] = test system: CCRF-CEM leukemia
[38] = test system: OVCAR-3 ovarian
[39] = test system: HOP-92 NSCLC
[40] = test system: NCI-H522 lung
[41] = test system: SNB-19 CNS
[42] = test system: HS 578T breast
[43] = test system: BT-549 breast
[44] = test system: MOLT-4 leukemia
[45] = test system: OVCAR-4 ovarian
[46] = test system: SK-MEL-2 melanoma
[47] = test system: MDA-MB-231 breast
[48] = test system: HL-60(TB) leukemia
[49] = test system: M14 melanoma
[50] = test system: HCT-116 colon
[51] = test system: HCT-15 colon
[52] = test system: SN12C renal
[53] = test system: UACC-62 melanoma
[54] = test system: OVCAR-5 ovarian
[55] = test system: SNB-75 CNS
[56] = test system: NCI-H460 lung
[57] = test system: CAKI-1 renal
[58] = test system: DU-145 prostate
[59] = test system: RXF 393 renal

Structure (SMILES): C=C1CC(Cn2cc(Br)c(=O)[nH]c2=O)(c2ccc(Br)cc2)OC1=O (centres undefined)
- TGI [1]: 10.4 µM
- TGI [2]: 3.18 µM
- TGI [3]: 23 µM
- TGI [4]: 36.6 µM
- TGI [5]: 8.4 µM
- TGI [6]: 16.7 µM
- TGI [7]: 9.4 µM
- TGI [8]: 29 µM
- TGI [9]: 41.3 µM
- TGI [10]: 12.8 µM
- TGI [11]: 10.6 µM
- TGI [12]: 4.7 µM
- TGI [13]: 14.4 µM
- TGI [14]: 31 µM
- TGI [15]: > 100 µM
- TGI [16]: > 38.7 µM
- TGI [17]: > 100 µM
- TGI [18]: 3.79 µM
- TGI [19]: 27.1 µM
- TGI [20]: > 22.6 µM
- TGI [21]: 31 µM
- TGI [22]: 28.8 µM
- TGI [23]: 4.06 µM
- TGI [24]: 10.2 µM
- TGI [25]: 7.5 µM
- TGI [26]: 7.46 µM
- TGI [27]: 39.7 µM
- TGI [28]: 23.7 µM
- TGI [29]: 3.64 µM
- TGI [30]: 3.27 µM
- TGI [31]: 4.11 µM
- TGI [32]: 5.04 µM
- TGI [33]: 1.61 µM
- TGI [34]: 15.9 µM
- TGI [35]: 24.6 µM
- TGI [36]: 7.89 µM
- TGI [37]: 5.26 µM
- TGI [38]: > 35 µM
- TGI [39]: 2.96 µM
- TGI [40]: 3.19 µM
- TGI [41]: 30.4 µM
- TGI [42]: > 32.4 µM
- TGI [43]: 8.25 µM
- TGI [44]: 6.13 µM
- TGI [45]: 4.63 µM
- TGI [46]: 3.74 µM
- TGI [47]: 17.4 µM
- TGI [48]: 2.74 µM
- TGI [49]: 3.22 µM
- TGI [50]: 2.75 µM
- TGI [51]: 3.85 µM
- TGI [52]: 20.8 µM
- TGI [53]: 9.46 µM
- TGI [54]: 22.5 µM
- TGI [55]: 26.7 µM
- TGI [56]: 35.6 µM
- TGI [57]: 7.13 µM
- TGI [58]: 15.5 µM

Structure (SMILES): O=C1NC(=S)N/C1=C\c1ccc(Sc2ccccc2C(=O)O)s1
- TGI [1]: > 100 µM
- TGI [2]: > 100 µM
- TGI [3]: > 100 µM
- TGI [4]: > 100 µM
- TGI [5]: > 100 µM
- TGI [6]: > 100 µM
- TGI [7]: > 100 µM
- TGI [9]: > 100 µM
- TGI [10]: > 100 µM
- TGI [11]: > 100 µM
- TGI [12]: > 100 µM
- TGI [13]: > 100 µM
- TGI [14]: > 100 µM
- TGI [15]: > 100 µM
- TGI [16]: > 100 µM
- TGI [17]: > 100 µM
- TGI [18]: > 100 µM
- TGI [19]: > 100 µM
- TGI [20]: > 100 µM
- TGI [21]: > 100 µM
- TGI [22]: > 100 µM
- TGI [23]: > 100 µM
- TGI [24]: > 100 µM
- TGI [25]: > 100 µM
- TGI [26]: > 100 µM
- TGI [27]: > 100 µM
- TGI [29]: > 100 µM
- TGI [30]: > 100 µM
- TGI [31]: > 100 µM
- TGI [32]: > 100 µM
- TGI [33]: > 100 µM
- TGI [34]: > 100 µM
- TGI [36]: > 100 µM
- TGI [38]: > 100 µM
- TGI [40]: 44.4 µM
- TGI [41]: > 100 µM
- TGI [42]: > 100 µM
- TGI [43]: > 100 µM
- TGI [44]: > 100 µM
- TGI [45]: > 100 µM
- TGI [46]: > 100 µM
- TGI [47]: > 100 µM
- TGI [48]: > 100 µM
- TGI [50]: > 100 µM
- TGI [51]: > 100 µM
- TGI [59]: > 100 µM
- TGI [52]: > 100 µM
- TGI [53]: > 100 µM
- TGI [54]: > 100 µM
- TGI [55]: > 100 µM
- TGI [56]: > 100 µM
- TGI [57]: > 100 µM
- TGI [58]: > 100 µM

Structure (SMILES): CCC(C)C(NC(=O)C1CCCN1)C(=O)NC(C(=O)NCC(=O)NC(CC(N)=O)C(=O)NC(CC(C)C)C(=O)NC(CC(C)C)C(=O)NC(CCCCN)C(N)=O)C(C)C (centres undefined) (H-PIVGNLLK-NH2; configuration not given here)
- TGI [1]: > 75 µM
- TGI [2]: > 75 µM
- TGI [3]: > 75 µM
- TGI [4]: > 75 µM
- TGI [6]: > 75 µM
- TGI [7]: > 75 µM
- TGI [8]: > 75 µM
- TGI [9]: > 75 µM
- TGI [10]: > 75 µM
- TGI [11]: > 75 µM
- TGI [12]: > 75 µM
- TGI [13]: > 75 µM
- TGI [14]: > 75 µM
- TGI [15]: > 75 µM
- TGI [16]: > 75 µM
- TGI [17]: > 75 µM
- TGI [18]: > 75 µM
- TGI [19]: > 75 µM
- TGI [20]: > 75 µM
- TGI [21]: > 75 µM
- TGI [22]: > 75 µM
- TGI [23]: > 75 µM
- TGI [24]: > 75 µM
- TGI [25]: > 75 µM
- TGI [26]: > 75 µM
- TGI [27]: > 75 µM
- TGI [28]: > 75 µM
- TGI [29]: > 75 µM
- TGI [30]: > 75 µM
- TGI [31]: > 75 µM
- TGI [32]: > 75 µM
- TGI [33]: > 75 µM
- TGI [34]: > 75 µM
- TGI [35]: > 75 µM
- TGI [36]: > 75 µM
- TGI [37]: > 75 µM
- TGI [38]: > 75 µM
- TGI [39]: > 75 µM
- TGI [40]: > 75 µM
- TGI [41]: > 75 µM
- TGI [42]: > 75 µM
- TGI [43]: > 75 µM
- TGI [44]: > 75 µM
- TGI [45]: > 75 µM
- TGI [46]: > 75 µM
- TGI [47]: > 75 µM
- TGI [48]: > 75 µM
- TGI [49]: > 75 µM
- TGI [50]: > 75 µM
- TGI [51]: > 75 µM
- TGI [52]: > 75 µM
- TGI [53]: > 75 µM
- TGI [54]: > 75 µM
- TGI [57]: > 75 µM
- TGI [58]: > 75 µM

Structure (SMILES): CC(=O)NC1C(OCc2ccccc2)OC(CO)C(O)C1OCC(=O)N[C@@H](C)C(=O)N[C@H](CCC(=O)NCCCCNc1c2ccccc2nc2cccc([N+](=O)[O-])c12)C(N)=O (some centres undefined)
- TGI [1]: 3.96 µM
- TGI [2]: 3.33 µM
- TGI [3]: 16.7 µM
- TGI [4]: 7.49 µM
- TGI [5]: 2.91 µM
- TGI [6]: 23.4 µM
- TGI [7]: 11.3 µM
- TGI [8]: > 100 µM
- TGI [9]: 14.5 µM
- TGI [10]: 9.44 µM
- TGI [11]: 2.54 µM
- TGI [12]: 3.68 µM
- TGI [13]: 32 µM
- TGI [14]: 37.3 µM
- TGI [15]: 5.03 µM
- TGI [16]: 5.32 µM
- TGI [17]: > 100 µM
- TGI [18]: 97 µM
- TGI [19]: 6.62 µM
- TGI [20]: > 100 µM
- TGI [21]: > 52.2 µM
- TGI [22]: 10.9 µM
- TGI [23]: 4.74 µM
- TGI [24]: 5.9 µM
- TGI [25]: 2.58 µM
- TGI [26]: 4.15 µM
- TGI [27]: 8.97 µM
- TGI [28]: 6 µM
- TGI [29]: 11.5 µM
- TGI [30]: 10.1 µM
- TGI [31]: 5.36 µM
- TGI [32]: 9.51 µM
- TGI [33]: 8.88 µM
- TGI [34]: > 100 µM
- TGI [35]: > 71.8 µM
- TGI [36]: 7.86 µM
- TGI [37]: > 100 µM
- TGI [38]: > 30.4 µM
- TGI [39]: 4.45 µM
- TGI [40]: 0.594 µM
- TGI [41]: 24 µM
- TGI [42]: > 31.3 µM
- TGI [43]: 13.1 µM
- TGI [44]: > 100 µM
- TGI [45]: 2.85 µM
- TGI [46]: 5 µM
- TGI [47]: 9.56 µM
- TGI [48]: > 100 µM
- TGI [49]: > 22.2 µM
- TGI [50]: 10 µM
- TGI [51]: 14.7 µM
- TGI [52]: 14.5 µM
- TGI [53]: 3.13 µM
- TGI [54]: > 27.5 µM
- TGI [55]: 4.69 µM
- TGI [56]: 3.36 µM
- TGI [57]: > 23.2 µM
- TGI [58]: 12.4 µM
